Measured values taken from ChEMBL document CHEMBL4052642, “4-Methyl-6,7-dihydro-4H-triazolo[4,5-c]pyridine-Based P2X7 Receptor Antagonists: Optimization of Pharmacokinetic Properties Leading to the Identification of a Clinical Candidate” (J Med Chem, 2017).
Values after ≈ are worked out from the molar mass of the structure shown.

What was measured:
[1] = Protein binding in rat plasma at 1 uM after 6 hrs by equilibrium dialysis method; assay type: ADME, cell-free; details: read-out: PPB (converted)
Liver [2] = experiment: Drug metabolism in mouse liver microsomes assessed as oxidation of methyl group on pyrimidine at 1 uM after 5 to 60 mins by LC-MS/MS analysis; assay type: ADME, microsome
[3] = Drug metabolism in cynomolgus monkey liver microsomes assessed as oxidation of methyl group on pyrimidine at 1 uM after 5 to 60 mins by LC-MS/MS analysis; assay type: ADME, Macaca fascicularis, microsome
[4] = Volume of distribution at steady state in Sprague-Dawley rat at 1 mg/kg, iv or 5 mg/kg, po by LC-MS/MS analysis; assay type: ADME, organism-based; details: in vivo, read-out: Vdss
Rattus norvegicus [5] = experiment: Ex vivo receptor occupancy at P2X7 in po dosed Sprague-Dawley rat brain assessed as plasma concentration required to achieve EC50 after 60 mins by autoradiography; assay type: functional, organism-based
[6] = Clearance in Sprague-Dawley rat at 1 mg/kg, iv or 5 mg/kg, po by LC-MS/MS analysis; assay type: ADME, organism-based; details: in vivo
[7] = Solubility of compound in phosphate buffer at pH 2 after 3 days; assay type: physicochemical
Rattus norvegicus [8] = experiment: Toxicity in rat assessed as increase in liver weight at 50 to 500 mg/kg administered via oral gavage on day 1 and day 4; assay type: organism-based; details: in vivo
[9] = Half life in beagle dog at 0.5 mg/kg, iv by LC-MS/MS analysis; assay type: ADME, organism-based, Canis lupus familiaris; details: in vivo
Rattus norvegicus [10] = experiment: Toxicity in rat assessed as autoinduction at 50 to 500 mg/kg administered via oral gavage on day 1 and day 5; assay type: organism-based; details: in vivo
Rattus norvegicus [11] = experiment: Ex vivo receptor occupancy at P2X7 in po dosed Sprague-Dawley rat brain after 60 mins by autoradiography; assay type: functional; details: 1 h
[12] = Oral bioavailability in Sprague-Dawley rat at 5 mg/kg by LC-MS/MS analysis; assay type: ADME, organism-based; details: in vivo
Cytochrome P450 2C19 = Cytochrome P450 2C19 (Homo sapiens, UniProt P33261); experiment: Drug metabolism assessed as recombinant human CYP2C19-mediated metabolite formation; assay type: ADME; details: recombinant enzyme
[13] = Volume of distribution at steady state in beagle dog at 0.5 mg/kg, iv or 2.5 mg/kg, po by LC-MS/MS analysis; assay type: ADME, organism-based, Canis lupus familiaris; details: in vivo, read-out: Vdss
[14] = Protein binding in mouse plasma at 1 uM after 6 hrs by equilibrium dialysis method; assay type: ADME, cell-free; details: read-out: PPB (converted)
[15] = Half life in Sprague-Dawley rat at 1 mg/kg, iv by LC-MS/MS analysis; assay type: ADME, organism-based; details: in vivo
[16] = Protein binding in human plasma at 1 uM after 6 hrs by equilibrium dialysis method; assay type: ADME, cell-free; details: read-out: PPB (converted)
[17] = Protein binding in rat brain at 5 uM after 5 hrs by equilibrium dialysis method; assay type: ADME, tissue-based; details: read-out: PB (converted)
[18] = Oral bioavailability in beagle dog at 2.5 mg/kg by LC-MS/MS analysis; assay type: ADME, organism-based, Canis lupus familiaris; details: beagle, in vivo
[19] = Solubility of compound in phosphate buffer at pH 7 after 3 days; assay type: physicochemical
Liver [20] = experiment: Drug metabolism in human liver microsomes assessed as oxidation of methyl group on pyrimidine at 1 uM after 5 to 60 mins by LC-MS/MS analysis; assay type: ADME, microsome
Liver [21] = experiment: Drug metabolism in dog liver microsomes assessed as oxidation of methyl group on pyrimidine at 1 uM after 5 to 60 mins by LC-MS/MS analysis; assay type: ADME, Canis lupus familiaris, microsome
[22] = Clearance in beagle dog at 0.5 mg/kg, iv or 2.5 mg/kg, po by LC-MS/MS analysis; assay type: ADME, organism-based, Canis lupus familiaris; details: in vivo
Liver [23] = experiment: Drug metabolism in rat liver microsomes assessed as oxidation of methyl group on pyrimidine at 1 uM after 5 to 60 mins by LC-MS/MS analysis; assay type: ADME, microsome

Sequence of Cytochrome P450 2C19 (P33261 whole entry): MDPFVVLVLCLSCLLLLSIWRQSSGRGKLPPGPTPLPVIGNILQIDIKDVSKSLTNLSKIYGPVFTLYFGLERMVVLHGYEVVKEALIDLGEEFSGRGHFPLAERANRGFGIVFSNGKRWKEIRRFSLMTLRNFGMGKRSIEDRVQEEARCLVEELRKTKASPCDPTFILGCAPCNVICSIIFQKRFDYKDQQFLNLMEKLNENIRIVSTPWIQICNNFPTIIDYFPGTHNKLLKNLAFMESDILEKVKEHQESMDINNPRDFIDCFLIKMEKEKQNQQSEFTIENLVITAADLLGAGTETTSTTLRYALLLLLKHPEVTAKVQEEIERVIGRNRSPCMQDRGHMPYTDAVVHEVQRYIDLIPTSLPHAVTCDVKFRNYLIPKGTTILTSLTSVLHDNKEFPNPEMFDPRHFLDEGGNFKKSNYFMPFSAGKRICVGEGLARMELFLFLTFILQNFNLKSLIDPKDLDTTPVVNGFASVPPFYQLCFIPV

SMILES: Cc1ccnc(-n2nnc3c2CCN(C(=O)c2cccc(C(F)(F)F)c2Cl)[C@@H]3C)n1
- fraction unbound at 6 h, 1 µM [1]: 0.095
- Drug metabolism (Liver [2]): Metabolite_Detected
- Drug metabolism [3]: Metabolite_Detected
- Vd [4]: 1.6 L/kg
- Cp (Rattus norvegicus [5]): 51 ng/mL
- clearance [6]: 64 mL/min/kg
- solubility at 72 h [7]: 328 µM (≈ 143 µg/mL)
- Activity (Rattus norvegicus [8]): Toxic
- half-life [9]: 42 min
- Activity (Rattus norvegicus [10]): Toxic
- ED50 (Rattus norvegicus [11]): 8.3 mg/kg
- bioavailability [12]: 3%
- Drug metabolism (Cytochrome P450 2C19): Metabolite_Detected
- Vd [13]: 1.8 L/kg
- fraction unbound at 6 h, 1 µM [14]: 0.095
- half-life [15]: 48 min
- fraction unbound at 6 h, 1 µM [16]: 0.085
- fraction unbound at 5 h, 5 µM [17]: 0.041
- bioavailability [18]: 86%
- solubility at 72 h [19]: 283 µM (≈ 124 µg/mL)
- Drug metabolism (Liver [20]): Metabolite_Detected
- Drug metabolism (Liver [21]): Metabolite_Detected
- clearance [22]: 21 mL/min/kg
- Drug metabolism (Liver [23]): Metabolite_Detected
